These results are taken from ChEMBL document CHEMBL1153660, “Synthesis and pharmacological properties of BW315c and other inotropic 2-arylimidazo[1,2-a]pyrazines” (Bioorg Med Chem Lett, 1993).

The term ED50 denotes the dose at which the effect has come halfway, by size or by number of responders. A low value points to an effect at a small dose.

Active and inactive are the calls of the source. No cut-off for these calls is given here.

The test system of test [1] is Canis familiaris. Description: In vivo 50% increase in left ventricular pressure in open chest dogs. The note with it: Canis lupus familiaris, Heart left ventricle. It is filed as functional.
The species entered for test [2] is Cavia porcellus. Put plainly: In vitro 50% increase in basal contractile force of paced guinea pig papillary muscle. It is filed as functional, Muscle tissue.
Test [3] concerns Canis familiaris. Description: Time required for inotropic response at 0.80 mg/kg dose; range 30-45. It counts as functional, Canis lupus familiaris. Particulars: dose 0.8 mg/kg.
For test [4], the system named is Canis familiaris. Put plainly: Time required for vasodilator response at 0.80 mg/kg dose; range 30-45. Particulars: dose 0.8 mg/kg. It counts as functional, Canis lupus familiaris.
The species named for test [5] is Canis familiaris. Put plainly: 10% increase in heart rate in open chest dogs. Particulars: Canis lupus familiaris. It is filed as functional.
Test [6] is filed under the species Canis familiaris. Description: 30% decrease in diastolic blood pressure in open chest dogs. It counts as functional. Particulars: Canis lupus familiaris, Artery.
The species named for test [7] is Cavia porcellus. Description: In vitro 50% increase in basal contractile force of paced guinea pig papillary muscle (insoluble). It is filed as functional, organism-based. The note with it: Muscle tissue.
The nature of test [8]: Ratio of ED50 (increased ventricular pressure) to ED30 (diastolic blood pressure). It counts as functional, Artery.
Test [9] has as its system Canis familiaris. Put plainly: Time required for inotropic response at 0.80 mg/kg dose; range 20-30. It is filed as functional, Canis lupus familiaris. Particulars: dose 0.8 mg/kg.
For test [10], the system named is Canis familiaris. Put plainly: Time required for vasodilator response at 0.80 mg/kg dose; range 15-30. It counts as functional, Canis lupus familiaris. The note with it: dose 0.8 mg/kg.
The target in a further test is Phosphodiesterase 3 (Homo sapiens, UniProt Q14432+Q13370). Put plainly: Concentration of compound required for 50% inhibition of type III cAMP phosphodiesterase from dog ventricles, activity expressed as pIC50. It counts as protein assay, Canis lupus familiaris.
For test [11], the system named is Canis familiaris. Description: Time required for inotropic response at 0.80 mg/kg dose; range 45-60. It is filed as functional, Canis lupus familiaris. The note with it: dose 0.8 mg/kg.
The test system of test [12] is Canis familiaris. Put plainly: Time required for vasodilator response at 0.80 mg/kg dose; range 10-30. It counts as functional, Canis lupus familiaris. Particulars: dose 0.8 mg/kg.
The species entered for test [13] is Cavia porcellus. Put plainly: In vitro 50% increase in basal contractile force of paced guinea pig papillary muscle (inactive). It is filed as functional. Particulars: Muscle tissue.
In test [14] the test system is Canis familiaris. Put plainly: Time required for vasodilator response at 0.80 mg/kg dose; range 2-15. It is filed as functional, Canis lupus familiaris. The note with it: dose 0.8 mg/kg.
For test [15], the system named is Canis familiaris. Put plainly: Time required for inotropic response at 0.80 mg/kg dose. It is filed as functional, Canis lupus familiaris. The note with it: dose 0.8 mg/kg.
The test system of test [16] is Canis familiaris. Description: Time required for vasodilator response at 0.80 mg/kg dose. It counts as functional, Canis lupus familiaris. The note with it: dose 0.8 mg/kg.

In the test with Canis familiaris [1], `COc1cc(C(N)=O)ccc1-c1nc2cc[nH]cc-2n1` gave an ED50 of 0.01 mg/kg. For the same compound, the pA50 in the test filed under Cavia porcellus [2] amounted to 4.43.

As to `COc1cc(C(N)=O)ccc1-c1cn2ccnc(OC)c2n1`, the Duration in the test with Canis familiaris [3] and with Canis familiaris [4] was 30 min in each case. For the same compound, the ED10 in the test filed under Canis familiaris [5] turned out to be 0.06 mg/kg. For the same compound, the ED30 in the test filed under Canis familiaris [6] amounted to 0.15 mg/kg. The compound also displayed a 50% effective dose (ED50) in the test with Canis familiaris [1] of 0.06 mg/kg. Also, the pA50 entry in the test listed under Cavia porcellus [7] is recorded as “Insoluble”. In test [8], the Ratio is 0.04.

Turning to `COc1cc(OS(C)(=O)=O)ccc1-c1nc2cc[nH]cc-2n1`, the median effective dose (ED50) in the test on Canis familiaris [1] amounted to 0.002 mg/kg. The pA50 in the test listed under Cavia porcellus [2] was <5.

Take `COc1cc([S+](C)[O-])ccc1-c1cn2cccnc2n1` (stereo unspecified): the 50% effect level in the test on Canis familiaris [1] (ED50) was put at a dose of 2.4 mg/kg. Moreover, in the test filed under Cavia porcellus [2], the pA50 is recorded as 4.63.

Consider `COc1cc([S+](C)[O-])ccc1-c1nc2cnccc2[nH]1` (stereo unspecified) [ISOMAZOLE], for which the Duration is recorded as 20 min with Canis familiaris [9] and 15 min in the test on Canis familiaris [10]. The same compound registered an ED10 in the test listed under Canis familiaris [5] of 0.06 mg/kg. The ED30 in the test filed under Canis familiaris [6] was determined as 0.19 mg/kg. The compound further displayed a median effective dose (ED50) in the test with Canis familiaris [1] of 0.06 mg/kg. This compound displayed a pA50 in the test filed under Cavia porcellus [2] of 4.64. Further, at Phosphodiesterase 3, the “Log IC50” value was -4.5. Besides, in test [8], the Ratio is reported as 0.32.

`Cc1[nH]c(=O)c(C#N)cc1-c1ccncc1` [MILRINONE]: the results for the Duration in the test on Canis familiaris [11] and in the test with Canis familiaris [12] were 45 min and 10 min, respectively. The same compound had an ED10 in the test filed under Canis familiaris [5] of 0.02 mg/kg. The compound further had an ED30 in the test filed under Canis familiaris [6] of 0.06 mg/kg. This compound also had a median effective dose (ED50) in the test with Canis familiaris [1] of 0.02 mg/kg. In addition, in test [8], the Ratio worked out at 0.3.

Regarding `COc1cc(OS(C)(=O)=O)ccc1-c1cn2ccncc2n1`, the pA50 entry in the test listed under Cavia porcellus [13] was “inactive”.

Turning to `COc1cc(OS(C)(=O)=O)ccc1-c1cn2ccnc(OC)c2n1`, the Duration stood at 45 min in the test with Canis familiaris [11] and 2 min with Canis familiaris [14]. This compound also had an ED10 in the test listed under Canis familiaris [5] of 0.05 mg/kg. In the test filed under Canis familiaris [6], the ED30 stood at 0.06 mg/kg. This compound came in with a 50% effective dose (ED50) with Canis familiaris [1] of 0.07 mg/kg. Besides, the pA50 entry in the test filed under Cavia porcellus [7] is given as “Insoluble”. The Ratio in [8] amounted to 1.2.

Turning to `COc1cc([S+](C)[O-])ccc1-c1cn2ccncc2n1` (stereo unspecified), the values for the Duration in the test on Canis familiaris [15] and in the test on Canis familiaris [16] were 5 min and >90 min, respectively. This compound also returned an ED10 in the test listed under Canis familiaris [5] of 0.28 mg/kg. This compound showed an ED30 in the test filed under Canis familiaris [6] of 0.03 mg/kg. The compound also showed an ED50 in the test on Canis familiaris [1] of 0.75 mg/kg. Moreover, in the test listed under Cavia porcellus [2], the pA50 is reported as 5.39. Also, on Phosphodiesterase 3, the “Log IC50” value was -5. The Ratio in test [8] is on record as 25.

On to `COc1cc([S+](C)[O-])ccc1-c1nc2c(OC)nccc2[nH]1` (stereo unspecified), for which, in the test on Canis familiaris [1], it took a dose of 0.13 mg/kg to reach the 50% effect level (ED50). In the test filed under Cavia porcellus [2], this compound showed a pA50 of 3.91.

Consider `COc1cc([S+](C)[O-])ccc1-c1cn2ccnc(OC)c2n1` (stereo unspecified), for which the results for the Duration with Canis familiaris [15] and in the test with Canis familiaris [16] were 60 min and 2 min, respectively. Also, in the test filed under Canis familiaris [5], the ED10 came to 0.11 mg/kg. In the test filed under Canis familiaris [6], the ED30 came to 1.17 mg/kg. In the test on Canis familiaris [1], the median effective dose (ED50) turned out to be 0.09 mg/kg. The compound further showed a pA50 in the test filed under Cavia porcellus [2] of 4.82. The “Log IC50” value on Phosphodiesterase 3 was -4.4. Further, in test [8], the Ratio worked out at 0.08.

As for `COc1cc([S+](C)[O-])ccc1-c1nc2cccnc2[nH]1` (stereo unspecified) [SULMAZOLE], the Duration in the test with Canis familiaris [15] and in the test with Canis familiaris [16] was 30 min throughout. Also, in the test listed under Canis familiaris [5], the ED10 worked out at 0.5 mg/kg. Besides, the ED30 in the test filed under Canis familiaris [6] turned out to be 1.25 mg/kg. Further, in the test with Canis familiaris [1], the ED50 stood at 0.8 mg/kg. Moreover, in the test listed under Cavia porcellus [2], the pA50 is given as 4.7.

Take `COc1cc(C(N)=O)ccc1-c1cn2ccncc2n1`: the values for the Duration with Canis familiaris [15] and with Canis familiaris [16] were >30 min and <5 min, respectively. The same compound had an ED10 in the test listed under Canis familiaris [5] of 0.02 mg/kg. In the test filed under Canis familiaris [6], this compound came in with an ED30 of 0.05 mg/kg. In the test on Canis familiaris [1], it took a dose of 0.02 mg/kg to reach the 50% effect level (ED50). Also, in the test filed under Cavia porcellus [2], the pA50 was 4.68. Besides, the Ratio in test [8] was determined as 0.4.
